Measurements taken from patent publication US20240376154A1, “BIS-INTERCALATING PEPTIDES, CONJUGATES AND METHODS OF USE” (ZYMEWORKS BC INC., priority 2023, published 2024).
Where a SMILES comes first, the peptide text is derived from it. Bridges are numbered along the chain shown (N, C = ends). Roman numbers before positions name the chains, in order. [ ]: non-standard residue; d: D form. The star is where a group is joined. Quinaldoyl(3-OH) = O=C(c1nc2ccccc2cc1O)*; NMeV = CN[C@H](C(=O)O)C(C)C; Pip = O=C(O)[C@@H]1CCCCN1; dDap = NC[C@@H](N)C(=O)O; Sar = CNCC(=O)O

What was measured:
[1] = tested on: tumour cells (at least 4 of a panel of ovarian, breast, lung, pancreatic, placenta, colon cell lines); assay: In vitro cytotoxicity (cell proliferation, CellTiter-Glo), average over tumour cell line panel; format: cell-based; details: for pIC50 (average): average pIC50 on all cell lines tested, 5 nights incubation, CellTiter-Glo
In short: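 Each cell line seeded at ~1000 cells/well and left to adhere overnight, then given a 10-point 1:3 compound titration for 5 nights at 37° C, 5% CO2. Viability read by CellTiter-Glo luminescence; IC50 per line, reported as pIC50 averaged across at least 4 lines.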

herring sperm DNA = assay: DNA melting temperature by differential scanning calorimetry (DSC); format: binding; details: DSC; herring sperm DNA; DNA melting temperature = 68° C.
Protocol: (§1) Representative compounds prepared as described in Example 2 were assessed in two complementary DNA-binding assays. Increased melting temperature of herring sperm DNA was measured using differential scanning calorimetry (DSC) and binding kinetics were determined by surface plasmon resonance (SPR) using a short DNA hairpin sequence.
DSC experiments were conducted as described in Leng, 2003, Nucleic Acids Res., 31 (21): […], using a Nano DSC (TA Instruments, New Castle, DE) and analyzed using the NanoAnalyze™ software package. Herring sperm DNA solution (Invitrogen 15634017, 10 mg/mL) was diluted to 1 mg/mL (1.4 mM base pair) in BPE buffer (6 mM Na2HPO4, 2 mM NaH2PO4, 1 mM Na4EDTA, pH 7.0). Test articles (20 μL, 10 mM in DMSO) were added and allowed reach equilibrium binding (>3 h), any insoluble material was removed by low-speed centrifugation, then samples were heated from 25 to 110° C. at a scan rate of 1° C./min. Melting curves were plotted and melting temperature was determined using NanoAnalyze™.

[2] = Lipophilicity by experimental HPLC retention time; format: physicochemical; details: HPLC retention time as measure of lipophilicity; C18, 10 to 90% CH3CN/H2O with 0.1% FA over 25 min
In short: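 Reversed-phase HPLC with diode array detection on a Kinetex EVO C18 150×4.6, 2.6 μm column. Gradient 10 to 90% CH3CN/H2O with 0.1% FA over 25 min; retention time serves as the lipophilicity measure.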

[3] = Stability in female mouse plasma; format: in vitro ADME; details: 37° C., 24 h; for plasma stability (in words): 1 μM; for half-life at 1 μM: female, mouse, plasma
Protocol: The stability of exemplary compounds of general Formula I in mouse plasma was evaluated as follows.
Compounds were incubated at 1 μM in duplicate in female mouse plasma, 250 μL final volume, at 37° C. for 24 h. Aliquots were sampled at 0, 15, 30, 60, 120, 240, 480 and 1440 min. Proteins were precipitated by addition of 5 volumes of cold methanol. After centrifugation 10000×g for 10 min, the residual concentration of compound in the supernatant was measured using an appropriate LC-MS/MS method. The measured concentrations were expressed as a function of time through a one-phase decay exponential regression calculated using GraphPad Prism software (GraphPad Software, Inc.) to generate the plasma half-life for each compound.

[4] = tested on: biotinylated hairpin DNA sequence 5'-GCATGCTTTTGCATGC; assay: DNA binding by surface plasmon resonance (SPR)
Protocol: as §1
SPR experiments were conducted at 25° C. using a Biacore™ T200 instrument and SA-Biotin chip. PBST Buffer: Gibco PBS, pH 7.4 was modified with Tween®20 (0.01%) and DMSO (2%). Immobilization: a short biotinylated hairpin DNA sequence 5′-GCATGCTTTTGCATGC (5′ biotin) (SEQ ID NO: 1) that contains two known sandramycin binding segments (in bold) was heated to 90° C., cooled to RT then immobilized to 700 RU. Bis-intercalating peptides at concentrations of 5, 2.5, 1.25, 0.625, and 0.312 μM in PBST were flowed over the chip at 20 μL/min with an association time of 600 s followed by dissociation for 600 s. Reference cell values were subtracted and binding constants ka, kd, and KD were determined using Biacore™ T200 Evaluation Software, version 3.0.

| Structure (SMILES) | pIC50 (average) [1] | DNA melt (° C.) (herring sperm DNA) [°C] | HPLC [2] [min] | plasma stability (in words) [3] | half-life at 1 μM [3] [h] | activity in cell assays (in words) [1] | DNA binding via SPR (in words) [4] | KD (mM) ([4]; SPR, 25° C., hairpin DNA) |
| --- | --- | --- | --- | --- | --- | --- | --- | --- |
| CC[C@H](C)[C@H]1C(=O)NC[C@@H](NC(=O)c2nc3ccccc3cc2O)C(=O)N2CCCC[C@H]2C(=O)NCC(=O)N(C)CC(=O)N(C)[C@@H]([C@@H](C)CC)C(=O)NC[C@@H](NC(=O)c2nc3ccccc3cc2O)C(=O)N2CCCC[C@H]2C(=O)NCC(=O)N(C)CC(=O)N1C [Compound 67, N,N′-((7R,11S,19aS,26R,30S,38aS)-11,30-di((S)-sec-butyl)-12,15,31,34-tetramethyl-6,10,13,16,19,25,29,32,35,38-decaoxohexatriacontahydro-2H,6H-dipyrido[1,2-a:1′,2′-q][1,4,7,10,13,17,20,23,26,29]decaazacyclodotriacontine-7,26-diyl)bis(3-hydroxyquinoline-2-carboxamide)] | 8.6 | 91 | 18.8 | stability over the course of the experiment |  |  |  |  |
| CC(C)[C@H]1C(=O)NC[C@@H](NC(=O)c2nc3ccccc3cc2O)C(=O)N2CCCC[C@H]2C(=O)NCC(=O)N(C)CC(=O)N(C)[C@@H](C(C)C)C(=O)OC[C@@H](NC(=O)c2nc3ccccc3cc2O)C(=O)N2CCCC[C@H]2C(=O)NCC(=O)N(C)CC(=O)N1C [Compound 14, N,N′-((7R,11S,19aS,26R,30S,38aS)-11,30-diisopropyl-12,15,31,34-tetramethyl-6,10,13,16,19,25,29,32,35,38-decaoxotetratriacontahydro-2H,6H,10H-dipyrido[2,1-b1: 2′,1′-l][1]oxa[4,7,10,13,17,20,23,26,29]nonaazacyclodotriacontine-7,26-diyl)bis(3-hydroxyquinoline-2-carboxamide)] | 8.5 | 97 | 19.6 |  | 12.3 |  |  |  |
| CCN1CC(=O)N(C)[C@@H](C(C)C)C(=O)NC[C@@H](NC(=O)c2nc3ccccc3cc2O)C(=O)N2CCCC[C@H]2C(=O)NCC(=O)N(CC)CC(=O)N(C)[C@@H](C(C)C)C(=O)NC[C@@H](NC(=O)c2nc3ccccc3cc2O)C(=O)N2CCCC[C@H]2C(=O)NCC1=O [Compound 132, N,N′-((7R,11S,19aS,26R,30S,38aS)-15,34-diethyl-11,30-diisopropyl-12,31-dimethyl-6,10,13,16,19,25,29,32,35,38-decaoxohexatriacontahydro-2H,6H-dipyrido[1,2-a:1′,2′-q][1,4,7,10,13,17,20,23,26,29]decaazacyclodotriacontine-7,26-diyl)bis(3-hydroxyquinoline-2-carboxamide)] | 8.6 |  | 18.5 | stability over the course of the experiment |  |  |  |  |
| CC(C)[C@H]1C(=O)NC[C@@H](NC(=O)c2nc3ccccc3cc2O)C(=O)N2CCCC[C@H]2C(=O)NCC(=O)NCC(=O)N(C)[C@@H](C(C)C)C(=O)NC[C@@H](NC(=O)c2nc3ccccc3cc2O)C(=O)N2CCCC[C@H]2C(=O)NCC(=O)NCC(=O)N1C [Compound 137, N,N′-((7R,11S,19aS,26R,30S,38aS)-11,30-diisopropyl-12,31-dimethyl-6,10,13,16,19,25,29,32,35,38-decaoxohexatriacontahydro-2H,6H-dipyrido[1,2-a:1′,2′-q][1,4,7,10,13,17,20,23,26,29]decaazacyclodotriacontine-7,26-diyl)bis(3-hydroxyquinoline-2-carboxamide)] (I: {Quinaldoyl(3-OH)}-[dDap][Pip]GG[NMeV] / II: {Quinaldoyl(3-OH)}-[dDap][Pip]GG[NMeV]; amide I:1-II:C, I:C-II:1) | Inactive |  | 15.1 |  |  | inactive in cell assays | did not demonstrate measurable DNA binding | none |
| CCOC(=O)[C@H](CCc1ccccc1)N[C@@H](C)C(=O)N1CCC[C@H]1C(=O)O [Enalapril, reference compound] |  |  |  |  | 2.7 |  |  |  |
| CC(C)[C@@H]1NC(=O)CN(C)C(=O)CNC(=O)[C@@H]2CCCCN2C(=O)[C@H](NC(=O)c2nc3ccccc3cc2O)CNC(=O)[C@H](C(C)C)NC(=O)CN(C)C(=O)CNC(=O)[C@@H]2CCCCN2C(=O)[C@H](NC(=O)c2nc3ccccc3cc2O)CNC1=O [Compound 152] (I: {Quinaldoyl(3-OH)}-[dDap][Pip]G[Sar]V / II: {Quinaldoyl(3-OH)}-[dDap][Pip]G[Sar]V; amide I:1-II:C, I:C-II:1) | 6.9 |  | 14.6 |  |  |  | near complete loss of binding |  |
| CC[C@H](C)[C@H]1C(=O)NC[C@@H](NC(=O)c2nc3ccccc3cc2O)C(=O)N2CCCC[C@H]2C(=O)NCC(=O)N(C)CC(=O)N(C)[C@@H]([C@@H](C)CC)C(=O)O[C@H](C)[C@@H](NC(=O)c2nc3ccccc3cc2O)C(=O)N2CCCC[C@H]2C(=O)NCC(=O)N(C)CC(=O)N1C [Compound 30, N,N′-((7R,8R,11S,19aS,26R,30S,38aS)-11,30-di((S)-sec-butyl)-8,12,15,31,34-pentamethyl-6,10,13,16,19,25,29,32,35,38-decaoxotetratriacontahydro-2H,6H,10H-dipyrido[2,1-b1: 2′,1′-l][1]oxa[4,7,10,13,17,20,23,26,29]nonaazacyclodotriacontine-7,26-diyl)bis(3-hydroxyquinoline-2-carboxamide)] | 8.3 | 85 | 20.9 |  |  |  |  |  |
| CC(C)[C@H]1COC[C@@H](NC(=O)c2nc3ccccc3cc2O)C(=O)N2CCCC[C@H]2C(=O)NCC(=O)N(C)CC(=O)N(C)[C@@H](C(C)C)C(=O)NC[C@@H](NC(=O)c2nc3ccccc3cc2O)C(=O)N2CCCC[C@H]2C(=O)NCC(=O)N(C)CC(=O)N1C [Compound 178, N,N′-((7R,11S,19aS,26R,30S,38aS)-11,30-diisopropyl-12,15,31,34-tetramethyl-6,13,16,19,25,29,32,35,38-nonaoxotetratriacontahydro-2H,6H,10H-dipyrido[2,1-b1: 2′,1′-l][1]oxa[4,7,10,13,17,20,23,26,29]nonaazacyclodotriacontine-7,26-diyl)bis(3-hydroxyquinoline-2-carboxamide)] | 8.1 | 92 | 18.4 | stability over the course of the experiment |  |  |  |  |
| CC(C)[C@H]1C(=O)NC[C@@H](NC(=O)c2nc3ccccc3cc2O)C(=O)N2CCCC[C@H]2C(=O)NCC(=O)N(C)CC(=O)N2CCCC[C@H]2C(=O)NC[C@@H](NC(=O)c2nc3ccccc3cc2O)C(=O)N2CCCC[C@H]2C(=O)NCC(=O)N(C)CC(=O)N1C [Compound 82] | 8.0 | 92 | 16.4 |  |  |  |  |  |
| CC(C)[C@H]1C(=O)NC[C@@H](NC(=O)c2nc3ccccc3cc2O)C(=O)N2CCCC[C@H]2C(=O)NCC(=O)N(C)CC(=O)N(C)[C@@H]([C@@H](C)OC(C)(C)C)C(=O)NC[C@@H](NC(=O)c2nc3ccccc3cc2O)C(=O)N2CCCC[C@H]2C(=O)NCC(=O)N(C)CC(=O)N1C [Compound 54, N,N′-((7R,11S,19aS,26R,30S,38aS)-11-((R)-1-(tert-butoxy)ethyl)-30-isopropyl-12,15,31,34-tetramethyl-6,10,13,16,19,25,29,32,35,38-decaoxohexatriacontahydro-2H,6H-dipyrido[1,2-a:1′,2′-q][1,4,7,10,13,17,20,23,26,29]decaazacyclodotriacontine-7,26-diyl)bis(3-hydroxyquinoline-2-carboxamide)] | 8.1 | 88 | 18.4 |  |  |  |  |  |
